Measurements reported in article PMC7156724, “Potent BRD4 inhibitor suppresses cancer cell-macrophage interaction” (Nature Communications, 2020).
“And” between values parts separate entries of the source, which are not always exact repeats. Equal entries are not always repeated.

How the values were obtained:
A375 human melanoma = A375 human melanoma xenograft tumor growth; format: in vivo, mouse
Excerpt: PO, oral administration; QD, once daily; BID, twice daily. b–d Tumor growth curves for A2780 ovarian tumor (n = 5) (b), TMD8 large B cell lymphoma (n = 6) (c), and B16F10 melanoma (n = 5) (d) bearing mice treated with the indicated compounds once daily for 11-21 days. e, f Tumor growth curves for A375 melanoma (n = 6) (e), and patient-derived xenograft (PDX) of melanoma (n = 5) (f) bearing mice treated with the indicated compounds once daily (5 days on, 2 days off) for 21 days. For d–f, NHWD-870 used is NHWD-870-HCl synthesized using Suzuki coupling route. Data are presented as mean ± SEM in (a, b, d, f) and mean + SEM in (c, e). p values were calculated using two-tailed, unpaired t tests. *p < 0.05; **p < 0.01; ***p < 0.001. Source data are provided as a Source Data file.
4–6 weeks old female BALB/c nude mice were used for most experiments, with the exception of 6–8 weeks old female C57BL/6 mice were used for B16F10 experiments, and 6–8 weeks old male BALB/c nude mice and SD rats were used for pharmacokinetic experiments. All animals were purchased from Shanghai SIPPR-Bk Lab Animal Co., Ltd. All animals were housed under a regimen of 12 h light/12 h dark cycles and specific pathogen-free conditions. 5×10^6 NCI-H526, ES-2, MDA-MB231, A2780, A375, B16F10, and TMD-8 cells (0.1 ml) were injected subcutaneously into female nude mice. The melanoma patient-derived xenograft model was derived from a human melanoma sample (BRAF, NARS and NF1 wild type, and p53 mutant) removed from a patient in Xiangya Hospital. Surgically removed tumor fragments were implanted subcutaneously into female NSG mice. When the tumors grew to ~1000 mm^3, they were harvested and cryopreserved or immediately re-implanted for expansion or experiments. Mouse body weight and tumor sizes were measured every 3 days. Once the tumors grew to 150–200 mm^3, mice were treated with the compounds as described in the Figures. 1 × 10^6 A2780 cells (1 ml) were injected into the abdominal cavity of nude mice. Ascitic volume and tumor weight were measured by an electronic balance. All the procedures were evaluated and approved by the Institutional Animal Care and Use Committee of Central South University and Yale University. […]
We apologize for not clearly labeling the experiments using compounds synthesized using Suzuki coupling method. In the revised manuscript, we modified the text to clearly mark the animal models in Fig 3d-f were tested using NHWD-870 synthesized using Suzuki […]
compared the activity of NHWD-870 synthesized using Stille coupling route with the NHWD-870 synthesized from Suzuki coupling route (Reviewer Figure 1). […]
activity and possible toxicity were identical.
Reviewer Figure 1 NHWD-870 synthesized through Stille or Suzuki route has similar properties in vivo. Tumor bearing mice were treated with 2mg/kg of the indicated compounds, orally administrated once daily for 21 days. Shown are tumor growth curves (a) and body weight change (b) for A375 melanoma bearing mice. […]
986158 in terms of potency, but apart from with the A375 melanocyte cell line, the advance seems relatively moderate. With such similar compounds, the pharmacokinetic properties and ability to accumulate at the desired site is often more important. Figure S6d (prev. Fig. 3d) in the previous

[1] = system: NCI-H211 small cell lung cancer (SCLC) cells; test: AlamarBlue assay, NCI-H211; format: cell-based; conditions: for Cellular activity in SCLCs (H211), alamarBlue: Fig.1e, replicates
Method in brief: (§1)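 BRD4 (BD1+BD2) binding to acetylated histone H4 was measured with a TR-FRET kit per the kit protocol. For the AlamarBlue assays, MDA-MB231, NCI-H211 and A375 cells were plated at ~30% confluence, adhered overnight and treated. Resazurin (0.3 mg/ml reagent) was added for 18 h and fluorescence read at ex 530/em 590 nm.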

[2] = Body weight change of H526 SCLC tumor bearing mice; conditions: for Mouse body weight changes (%) from Day 0: 3mg/kg, QDx21D, 3 mg/kg
H526 tumors = test: Immunofluorescent staining of cleaved caspase 3 and Ki67 in H526 tumors; format: in vivo, mouse; conditions: treated H526 tumors, independent images
Procedure: Immunofluorescence staining of tumor sections was performed according to the manufacturer’s instructions. Slides were imaged using a Zeiss Axiovert 200 fluorescence microscope (Carl Zeiss MicroImaging; Thornwood, NY), and images were captured using Openlab3 software (Imprecision, Lexington, MA). Cleaved caspase 3, Ki67, CSF1, and CD68 positive cells were counted with ImageJ version 1.52s[58].
Supplementary Figure 10. NHWD-870 increased tumor apoptosis and inhibite d tumor proliferation.
(a,b) Immunofluorescent staining of cleaved caspase 3 (apoptotic cells, red) and E-Cadherin (cancer cells, […]
green) in vehicle, NHWD-870 or BMS-986158 treated H526 tumors from Figure 4a. Shown are […]
representative images of cleaved caspase 3 positive cells (a) and quantification of cleaved caspase 3 positive […]
cells (b). Scale bar is 30 μm. Data are presented as mean ± SEM from 6 independent images. p values were […]
calculated using two-tailed, unpaired t tests. **, p<0.01; ***, p<0.001. (c,d) Immunofluorescent staining of […]
Ki67 (proliferating cells, red) and E-Cadherin (cancer cells, green) in vehicle, NHWD-870 or BMS-986158 […]
treated H526 tumors from (Figure 4a). Shown are representative images of Ki67 positive cells (c) and […]
quantification of Ki67 positive cells (d). Scale bar is 30 μm. […]
independent images. p values were calculated using two-tailed, unpaired t tests. *, p<0.05; ***, p<0.001. […]

[3] = system: MDA-MB231 triple negative breast cancer (TNBC) cells; test: AlamarBlue assay, MDA-MB231; format: cell-based, human; conditions: for Cellular activity in TNBCs (MDA-MB231), alamarBlue: Fig.1f, replicates
Method in brief: as §1

Cc1nnn(C)c1-c1cnc2c3c4cnn(C)c4ccc3n([C@H](c3ccccc3)C3CCOCC3)c2c1 [NHWD-870]
effect on tumor growth (A375 human melanoma; A375 human melanoma, once daily (5 days on, 2 days off) 21 days, NHWD-870-HCl): very strong tumor inhibitive effects | activity and possible toxicity, Stille versus Suzuki coupling route (A375 human melanoma; A375 melanoma bearing mice, 2mg/kg orally once daily for 21 days): identical | fold increased potency versus BMS-986158 ([1]; Fig 1e, f): 3 fold | Cellular activity in SCLCs (H211), alamarBlue ([1]; concentration 0.0169701): 15.41 and 2.82 | Cellular activity in SCLCs (H211), alamarBlue ([1]; concentration 0.0398488): 10.96 and 4.35 | Cellular activity in SCLCs (H211), alamarBlue ([1]; concentration 0.137272): 28.76 and 26.98 | Cellular activity in SCLCs (H211), alamarBlue ([1]; concentration 0.614394): 86.83 and 87.53 | Cellular activity in SCLCs (H211), alamarBlue ([1]; concentration 1.09152): 89.61 and 89.15 | Cellular activity in SCLCs (H211), alamarBlue ([1]; concentration 1.56864): 89.26 and 88.73 | Cellular activity in SCLCs (H211), alamarBlue ([1]; concentration 2.04576): 89.83 and 90.11 | Cellular activity in SCLCs (H211), alamarBlue ([1]; concentration 3): 91.32 and 90.79 | Cellular activity in SCLCs (H211), alamarBlue ([1]; concentration column prints 2.52288): 91.56 and 90.89 | IC50 ([1]; Homo sapiens, NCI-H211, 72 h, 72 h treatment, nM, read-out: IC50, cellular activity in NCI-H211 (alamarBlue)): 2 nM | fold more potent than JQ1 ([1]; NCI-H211 and MDA-MB231 cells): about 50 fold | Body weight change (%) ([2]; 3mg/kg,QD, day 0 and day 20 or the last available data point, individual mice): -7.583% and -7.971% and -2.299% and 0.4517% | Mouse body weight changes (%) from Day 0 ([2]; Day 3, individual mice): -0.08% and -2.62% and -1.34% and 1.57% and 0.13% and 1.52% | Mouse body weight changes (%) from Day 0 ([2]; Day 7, individual mice): -7.05% and -0.52% and -4.19% and 1.94% and -3.62% and 0.82% | Mouse body weight changes (%) from Day 0 ([2]; Day 10, individual mice): -10.82% and -3.48% and 3.84% and -1.13% and -5.35% and 3.04% | Mouse body weight changes (%) from Day 0 ([2]; Day 14, individual mice): -1.11% and -16.35% and -6.33% and 0.59% and -10.57% and -3.67% | Mouse body weight changes (%) from Day 0 ([2]; Day 17, individual mice): 3.90% and -4.84% and -5.58% and -1.24% and -10.06% and -0.93% | Mouse body weight changes (%) from Day 0 ([2]; Day 20, individual mice): 0.45% and -8.20% and -7.58% and -7.97% and -11.87% and -2.30% | body weight loss ([2]; H526 SCLC tumor bearing mice, 3mg/kg QD): about 6% | % of KI67 (Ki67 positive cells) (H526 tumors): 10% and 8% and 13% and 11% and 6% | Cellular activity in TNBCs (MDA-MB231), alamarBlue ([3]; concentration 0.15): 49.81 and 46.95 | Cellular activity in TNBCs (MDA-MB231), alamarBlue ([3]; concentration 0.6): 80.07 and 80.02 | Cellular activity in TNBCs (MDA-MB231), alamarBlue ([3]; concentration 1): 86.71 and 86.28 | Cellular activity in TNBCs (MDA-MB231), alamarBlue ([3]; concentration 1.5): 87.88 and 89.64 | Cellular activity in TNBCs (MDA-MB231), alamarBlue ([3]; concentration 2): 89.68 and 91.47 | Cellular activity in TNBCs (MDA-MB231), alamarBlue ([3]; concentration 2.5): 90.92 and 92.15 | Cellular activity in TNBCs (MDA-MB231), alamarBlue ([3]; concentration 3): 92.14 and 92.46 | Cellular activity in TNBCs (MDA-MB231), alamarBlue ([3]; concentration -0.3): 13.41 and 13.25 | Cellular activity in TNBCs (MDA-MB231), alamarBlue ([3]; concentration -0.9): 6.42 and 8.37 | IC50 ([3]; Homo sapiens, MDA-MB-231, 72 h, 72 h treatment, nM, read-out: IC50, cellular activity in MDA-MB231 (alamarBlue)): 1.6 nM
